Consider two molecules from publication PMC11450061 (Clinical Pharmacokinetics, 2024).

A short description of data set [1]: Concentration-QTcF analysis. Format: in vivo, human.
The nature of data set [2]: TEAEs leading to dose reduction/interruption, time-dependent Cox regression. In kind it is in vivo, human. To be noted: 152 of 351 patients; pooled dose-finding and ASCEMBL.
The nature of data set [3]: Exposure-response safety. Format: in vivo, human. To be noted: for predicted probability of AST increase grade ≥ 2 event within a cycle: ASCEMBL study.
The conditions of data set [4]: asciminib 40 mg b.i.d. vs bosutinib 500 mg q.d.; cited from earlier work.
The subject of data set [5] is BCR::ABL1^IS levels in patients with CML-CP without the T315I mutation. In words: Exposure-response efficacy. To be noted: Cmin model.
A short description of data set [6]: Population pharmacokinetics. Details: species or system human.
The subject of data set [7] is BCR::ABL1^IS in patients with CML-CP treated with two or more prior TKIs. To be noted: asciminib 40 mg b.i.d. vs bosutinib 500 mg q.d.; cited from earlier work.
For data set [8] the following is noted: cited from earlier work.
The conditions of data set [9]: cited from earlier work. The source holds these as a separate data set.

Like-named read-outs stand apart in the source and are kept apart here.

For `O=C(Nc1ccc(OC(F)(F)Cl)cc1)c1cnc(N2CC[C@@H](O)C2)c(-c2ccn[nH]2)c1` [asciminib], the “estimated mean QTcF change from baseline” value in data set [1] (at Cmax of 40 mg b.i.d.) was 3.35 (90% CI 2.28–4.43) ms; in [1] (at Cmax of 80 mg q.d.) it was 3.64 (90% CI 2.60–4.68) ms; in [1] (at Cmax of 200 mg b.i.d.) it was 5.37 (90% CI 3.97–6.77) ms; in data set [1] (at the HCRE (highest clinically relevant exposure)) it was 6.77 (90% CI 4.67–8.87) ms. In [2], the “patients with TEAEs leading to dose reduction or dose interruption” value was determined as 43.3%. Besides, the “predicted probability of AST increase grade ≥ 2 event within a cycle” value in data set [3] (5-fold increase in geometric mean Cmax of 40 mg b.i.d.) was 0.4%; in data set [3] (geometric mean Cmax of 40 mg b.i.d.), 0.1%. Also, the “relationship between asciminib exposure and the majority of the laboratory events analyzed” value in [3] (repeated measures logistic regression) is recorded as “no statistically significant relationship”. For the same molecule, in data set [4], the “AEs leading to treatment discontinuation” value is listed as 7.7%. In addition, the “grade ≥ 3 adverse events” value in [4] was 56.4%. Further, the “decrease in drug effect with a Cmin lower by 30%” value in data set [5] is reported as under 2%. Further, the “Effmag (population mean, RSE)” value in [5] (patients without T315I) was 42.1 (3.4%). Also, in data set [6], the “Cmin lower for 80 mg q.d. compared with 40 mg b.i.d.” value is recorded as “about 30%”. In addition, the “increase in Cmax with 80 mg q.d. compared with 40 mg b.i.d.” value in [6] (based on PopPK) turned out to be 60%. Further, the “proportion of patients achieving MMR (BCR::ABL1^IS ≤ 0.1%) at 96 weeks” value in [7] is reported as 37.6%. Besides, the “decrease in exposure compared with the fasted state” value in data set [8] (high-fat meal) is “approximately 65%”; in data set [8] (low-fat meal), “approximately 30%”. For the same molecule, the “increase in Cmax of asciminib when taken in combination with imatinib” value in [9] is recorded as 1.59 fold.
Consider `COc1cc(Nc2c(C#N)cnc3cc(OCCCN4CCN(C)CC4)c(OC)cc23)c(Cl)cc1Cl` [bosutinib], for which, in [4], the “AEs leading to treatment discontinuation” value is recorded as 26.3% and the “grade ≥ 3 adverse events” value is reported as 68.4%. The “proportion of patients achieving MMR (BCR::ABL1^IS ≤ 0.1%) at 96 weeks” value in data set [7] is listed as 15.8%.
